Test results taken from US11666560B2, “Anti-fibrotic agent” (George Mason University, priority 2020, dated 2023).

Tests used:
[1] = tested on: murine lung exposed to bleomycin; assay: Treatment of bleomycin-exposed mice with CT474 (post-disease modeling of lung fibrosis); assay type: in vivo, mice (C57B6 WT); settings: treated from days 7 to 13, vehicle vs CT474, N=13-15 per group
From the text: “Vehicle” as used herein is the substance used as a carrier for the pharmaceutical agent to include aqueous solutions or oils. Oils are derived from petroleum, animal, vegetable or synthetic origin, such as peanut oil. In FIGS. 5-7 signify “veh” signify vehicle. Flow cytometry of peripheral blood buffy coat after being treated with either vehicle or CT474. Pre-mortem Pressure-Volume curve using Sireq Flexivent in murine lung exposed to bleomycin then treated from days 7 to 13 with vehicle or CT474 is shown in FIG. 6. Soluble collagen measured by Sircol assay in murine lung (C57B6 WT) exposed to bleomycin then treated from days 7 to 13 with vehicle (n=15) or […] (n=13) is shown in FIG. 7. Statistical calculations were performed using from repeated measures. Analysis of variation (ANOVA) was used to determine differences between groups.

[2] = tested on: Klebsiella pneumoniae strain 43816; assay: Minimal inhibitory concentration (MIC) method, growth of Klebsiella pneumoniae in tryptic soy broth; assay type: cell-based
Procedure: FIG. 3 show CFU of Klebsiella pneumoniae cultured in tryptic soy broth at 37° C. for 24 h with 0, 10 nM, 100 nM, 1 μM, and 10 μM CT474 dissolved in 1% Dimethyl sulfoxide (DMSO).
Microorganisms: Klebsiella pneumoniae strain 43816 (American Type Culture Collection, Manassas, Va.) was used for the studies.
The minimal inhibitory concentration (MIC) method was used to characterize the in vitro efficacy of the compound as shown in the FIG. 3. Briefly, Klebsiella pneumoniae strain 43816 (American Type Culture Collection, Manassas, Va.) was grown overnight at 37° C. to mid-log phase in tryptic soy broth. CT474 was initially suspended with DMSO, then diluted in the culture broth with final concentrations of CT474 at 0 nM (1% DMSO alone), 10 nM, 100 nM, 1 μM, and 10 μM with 10,000 CFU Klebsiella pneumoniae in 10 mL tryptic soy broth. OD600 was measured 24 h later, then the CFU was determined using a standard curve.
Statistical calculations were performed using from repeated measures. Analysis of variation (ANOVA) was used to determine differences between groups.

CO[C@H]1C[C@@H](C)C/C(C)=C/[C@@H](C/C=C/c2cc3ccccc3c3ccccc23)C(=O)C[C@H](O)[C@@H](C)[C@@H](/C(C)=C/[C@@H]2CC[C@@H](O)[C@H](OC)C2)OC(=O)[C@@H]2CCCCN2C(=O)C(=O)[C@]2(O)O[C@H]1[C@@H](OC)C[C@H]2C [CT474]
fibrotic lung damage [1]: significant reduction | effect on the growth of Klebsiella pneumoniae (CFU determined from OD600) ([2]; 10 nM, 100 nM, 1 μM, 10 μM CT474 in 1% DMSO, tryptic soy broth, 37° C., 24 h, 10,000 CFU inoculum): increasingly suppressive effects | colony forming units (CFU) of Klebsiella pneumoniae ([2]; increase in concentration of CT474 from 10 nM upto 1 μM): consecutive decrease
